The values that follow come from patent publication US11439611B2, “Administration of serine protease inhibitors to the stomach” (LEADING BIOSCIENCES, INC., priority 2010, dated 2022).

What all share (type): in vivo
The nature of experiment [1]: Case study: human patient with Fournier's gangrene, septic shock and multiple organ failure, treated with gabexate mesilate. How it is done:
For example, as reported in a case study from the Cheng-Hsin General Hospital (that was approved by Human Ethics Committee and written consent by the patient), a heart transplant patient was regularly followed-up in the clinic with cyclosporine, mycophenolate, and prednisolone therapy for four years. The cyclosporine level was kept around 150, […] without evidence of rejection or infection during this period of follow-up. […] The wound was self-managed by the patient and deteriorated after one week. They were hospitalized and immediately admitted to the intensive care unit. At presentation, blood pressure was 80/40 mmHg in spite of aggressive fluid management with 2 liters of crystalloid and colloid fluid over 5 hours and vasopressor therapy with dopamine […]. […] They were intubated and received broad-spectrum antibiotics, including teichomycin, meropenem, and caspofungin. […] The diagnosis was Fournier's gangrene complicated with septic shock and multiple organ failure. Due to persistent septic shock and worsening septic markers, the patient received in addition a diverting colectomy and intravenous total parental nutrition. Furthermore, the patient also received a second wide debridement. The wound culture was positive with multiple drug resistance Pseudomonas aeruginosa and Bacteroides thetaiotaomicron.
Intravenous gabexate mesilate was given for severe septic shock and elevated amylase and lipase values (as markers for presence of pancreatic enzymes) at a dose of 3000 mg/day. At the same time, the patient stopped all enteral feeding and total parental nutrition was given with positive fluid balance of more than 1 liter per day.
Treatment was then switched to enteral gabexate mesilate infusion by continuous feeding into the stomach via nasogastric tube at a dose of 3000 mg/day in 2000 ml of normal saline. […] On the third day, the dose of gabexate mesilate was reduced to 300 mg/day in a fluid volume of 2000 ml and kept at this level for 10 days before discharge of the patient from the intensive care unit. […] Three days after enteral gabexate mesilate treatment they were extubated. On day 13, the immunosuppressant medication was restored with reduced dosage compared to the time before hospitalization and they were discharged from the ward after one month of admission. Five months after discharge at the time of this report writing the patient was alive.

A further experiment deals with digestive enzymes. Nature of the experiment: Shock treatment in rats with an enteral protease inhibitor to block digestive enzymes. As to the method:
With respect to suitable quantities of one or more protease inhibitors, the inventors observed in various animal models that shock treatment using protease inhibitors to block digestive enzymes requires for at least some protease inhibitors a minimum effective dosage that is substantially above the dosage contemplated in the '283 patent. For example, using tranexamic acid in rats, the minimum effective dose was 100 mg/kg (127 mM in the enteral solution with 17 ml to a 350 gm rat). Here, tranexamic acid was given to rats in 18 cc of fluid. The equivalent concentration in 2 liters (deemed suitable as human dose) is 3.2 grams. The maximum dose tested in rats was 1125 mg/kg, which is equivalent to 36 grams for a human dose in 2 liters of fluid to be administered into the lumen of the stomach or intestine.

Experiment [2] is described as follows: Rat model of severe ischemic intestine with enteral oxygen carrier. To be noted: 30 min ischemia, 17 ml solution for a 230 g rat, saturated for 10 min in oxygen. As to the method: More specifically, the feasibility was illustrated in a model with 30 min ischemia with perfluorodecalin solution 17 ml for 230 g rat) previously saturated for 10 min in oxygen. Thus, it should be noted that gastric, duodenal, jejunal, and ileal irrigation (or otherwise exposure) may be used as a stand-alone or supplemental treatment in human and other mammals. Most typically, the volume of the oxygen carrier will be adjusted such as to allow intimate contact with the oxygen carrier throughout the stomach, duodenum, jejunum, and/or ileum.

Where [3] appears, read: enteral via nasogastric tube, 3000 mg/day, within two days.

For “[Ethyl p-(6-guanidinohexanoyloxy) benzoate] methanesulfonate [gabexate mesilate]”, the “effectiveness of a single dose/day given via NG tube in human” value in experiment [1] (2 to 4 grams in 1 to 2 liter solution with GOLYTELY (PEG) or saline, over multiple days (up to 14)) was “very effective”. Moreover, the blood pressure entry in experiment [1] (continuous feeding into the stomach via nasogastric tube, 3000 mg/day in 2000 ml normal saline, within two days, minimal dose of dopamine) is on record as “stabilized”. In experiment [1] (enteral via nasogastric tube, 3000 mg/day, then 300 mg/day from the third day for 10 days, FIG. 1A), the “amylase, lipase and white blood cell (WBC) count” value was “reduced to control values”. Besides, in experiment [1] (setting [3]), the glucose level entry was “could be controlled by reduced dose of subcutaneous insulin” and the “patient's level of conscience” value was “increased”. The “x-ray of the abdomen (ileus)” value in experiment [1] (enteral via nasogastric tube, day 16 vs day 1, FIG. 1C) was “improved ileus”. The survival result in experiment [1] (five months after discharge) is on record as “alive”. The “plasma amylase and lipase values” in experiment [1] (intravenous, 3000 mg/day, over the next 12 hours, enteral feeding stopped, total parenteral nutrition) is given as “did not reduce”. In addition, in experiment [1] (three days after enteral treatment), the extubation result is given as “extubated”.
For the compound `NC[C@H]1CC[C@H](C(=O)O)CC1` [tranexamic acid], the “minimum effective dose, as concentration in the enteral solution” value with digestive enzymes (17 ml to a 350 gm rat) is listed as 127 mM. Besides, the “equivalent of the minimum effective rat dose in 2 liters (human dose)” value in the experiment on digestive enzymes (extrapolated from rat to a human dose in 2 liters) was 3.2 grams. The compound also showed a minimum effective dose in the experiment on digestive enzymes (rats, enteral, given in 17-18 ml of fluid to a 350 gm rat) of 100 mg/kg.
As for `FC1(F)C(F)(F)C(F)(F)C2(F)C(F)(F)C(F)(F)C(F)(F)C(F)(F)C2(F)C1(F)F` (stereo not shown) [perfluorodecalin, Perfluorodecalin], the “intestinal damage / entry of digestive enzymes into the wall of the intestine” value in experiment [2] is on record as “minimize intestinal damage”.
